Results published in US12440500B2, “Phytoecdysones and the derivatives thereof for use in the treatment of neuromuscular diseases” (BIOPHYTIS, priority 2019, dated 2025).

What was measured:
[1] = tested on: muscles; conditions: rats in vivo; cited from earlier work
[2] = tested on: murine myotubes C2C12; conditions: murine myotubes C2C12 in vitro; cited from earlier work
[3] = young athletes; cited from earlier work
[4] = tested on: SMA mice (FVB/NRj-SmnΔ7/Δ7 huSMN2+/+ 2 copies); test: Phenotypic analysis: weight and survival of severe SMA mice under daily gavage; assay type: in vivo, mouse
Source text: A severe SMA mouse model was used on an FVB/NRj gene pool, characterized by the invalidation of the exon 7 of the murine gene Smn and expressing 2 copies of the human transgene SMN2 (Smn^Δ7/Δ7; huSMN2^+/+) (Hsieh et al., 2000). The mice resulting from these crossings having the “FVB/NRj-Smn^Δ7/Δ7 huSMN2^+/+ 2 copies” genotype are described as “SMA”. These mice are characterized by progressive growth failure which is observed starting from 4 days post-natal and have a degeneration of about 50% of the motor neurons of the ventral horn of the spinal cord at the end of life, progressive muscular atrophy and an average lifespan of about 12 days (Hsieh et al., 2000). The mice having the “FVB/NRj-Smn^+/Δ7 huSMN2^++ 2 copies” genotype have no particular phenotype and are used as so-called “control” mice. The mice were treated via daily gavage of a dose of 50 mg/kg, either with the molecule BIO101 complexed to a vehicle (cyclodextrin in the present case), or with the vehicle alone (VH). The weight and the survival were analyzed on a daily basis until P11. In the rest of the description, n corresponds to the size of the sample and p corresponds to the “p value” used to quantify the statistical significance of a result.
The same type II murine model was used to characterize the phenotypic effects of the molecule BIO103 in a severe SMA model. The mice were treated via daily gavage of a dose of 50 mg/kg, either with the molecule BIO103 complexed with the vehicle (cyclodextrin in the present case), or with the vehicle alone (VH). The weight and the survival were analyzed on a daily basis until P11.

[5] = tested on: muscles Soleus, Plantaris and Tibialis of SMA mice; test: Histological analysis of muscle cross-sections (Hematoxylin-Eosin): number and cross-section surface of muscle fibers; assay type: in vivo, mouse
Protocol: At P11, one hour after their last gavage, the treated mice were anaesthetized with pentobarbital 1% at 6 μL/g of mouse then the extensor muscles Soleus, with a mixed typology, extensor Plantaris, with a fast typology, and flexor Tibialis, with a fast typology, were sampled in order to conduct histological or molecular studies. After sampling, the muscles Soleus, Plantaris and Tibialis were included individually in a preservation medium then frozen in cooled isopentane. For each muscle, medial cross-sections 10 μm thick were realized. These sections were stained with Hematoxyline-Eosin, dehydrated and mounted in an inclusion medium. The images of these sections were taken with a microscope (with a magnification ×200). In order to obtain images with an impression of relief, the differential interference contrast technique was used. From these images, the number of muscle fibers of each muscle and the cross-section surface of 20% of these fibers were counted using image processing software (FIG. 2).

Row | SMILES | effects on protein syntheses in muscles [1] | effects on protein syntheses [2] | muscle mass [3] | survival at P11 ([4]; 50 mg/kg daily gavage P0 to P11) [%] | loss of weight of the animals ([4]; 50 mg/kg daily gavage from birth to P11, versus vehicle) | atrophy of the muscle fibers (cross-section surface) in relation to healthy control mice ([5]; Plantaris, P11, SMA mice treated P0 to P11 (SMA vehicle 46%)) [%] | atrophy of the muscle fibers (cross-section surface) in relation to healthy control mice ([5]; Soleus, P11, SMA mice treated P0 to P11 (SMA vehicle 50.2%)) [%] | atrophy of the muscle fibers (cross-section surface) in relation to healthy control mice ([5]; Tibialis, P11, SMA mice treated P0 to P11 (SMA vehicle 56.1%)) [%] | proportion of fibers with cross-section surface greater than 400 μm^2 ([5]; Tibialis, versus SMA vehicle) | proportion of small fibers with cross-section surface less than 200 μm^2 ([5]; Tibialis, versus SMA vehicle, p<0.05)
1 | CC(C)(O)CC[C@@H](O)[C@](C)(O)[C@H]1CC[C@@]2(O)C3=CC(=O)[C@@H]4C[C@@H](O)[C@@H](O)C[C@]4(C)[C@H]3CC[C@]12C [20-hydroxyecdysone] | stimulating effects | stimulating effects | favors the increase |  |  |  |  |  |  | 
2 | CCSCC(=O)[C@H]1CC[C@@]2(O)C3=CC(=O)[C@@H]4C[C@@H](O)[C@@H](O)C[C@]4(C)C3CC[C@]12C (stereo partly drawn) [BIO103, (2S,3R,5R,10R,13R,14S,17S)-17-(2-ethylsulfanylacetyl)-2,3,14-trihydroxy-10,13-dimethyl-2,3,4,5,9,11,12,15,16,17-decahydro-1H-cyclopenta[a]phenanthren-6-one] |  |  |  | 66.6 | tends to limit | 15.3 | 37.1 | 22.1 | significant increase | decreases significantly
